ChEMBL document CHEMBL6134819, “Discovery of novel tranylcypromine-indazole-based derivatives as LSD1 inhibitors for acute myeloid leukemia treatment” (Eur J Med Chem, 2025)
pIC50: −log10 of the molar value. Activity calls are given as the source filed them. No cut-off for these calls is given here.

Key:
[1] = Cmax in male Sprague-Dawley rat at 1 mg/kg, iv measured up to 24 hrs by LC-MS/MS analysis; type: ADME, organism-based; details: in vivo
[2] = target: T1, Amine oxidase [flavin-containing] A (Homo sapiens, UniProt P21397); test: Inhibition of human N-terminal Flag-tagged MAOA extracted baculovirus infected in Sf9 cells measured after 0.5 hrs by MAO-Glo Assay
T1 sequence (P21397 whole entry): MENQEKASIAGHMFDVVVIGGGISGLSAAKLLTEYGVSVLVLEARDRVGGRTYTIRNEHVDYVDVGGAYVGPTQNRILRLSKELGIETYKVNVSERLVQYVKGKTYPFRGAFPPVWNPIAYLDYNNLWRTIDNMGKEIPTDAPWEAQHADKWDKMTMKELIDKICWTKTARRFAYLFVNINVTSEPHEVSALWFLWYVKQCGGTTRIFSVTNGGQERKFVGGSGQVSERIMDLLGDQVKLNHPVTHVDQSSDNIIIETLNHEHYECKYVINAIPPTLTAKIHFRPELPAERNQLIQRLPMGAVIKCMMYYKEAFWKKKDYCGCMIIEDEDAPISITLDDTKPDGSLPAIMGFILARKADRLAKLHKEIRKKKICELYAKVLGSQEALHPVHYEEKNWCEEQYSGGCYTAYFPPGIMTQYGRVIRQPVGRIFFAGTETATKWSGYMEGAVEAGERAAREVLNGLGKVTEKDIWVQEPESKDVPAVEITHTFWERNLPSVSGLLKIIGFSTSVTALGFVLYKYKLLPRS

[3] = Half life in male Sprague-Dawley rat at 10 mg/kg, po measured up to 24 hrs by LC-MS/MS analysis; type: ADME, organism-based; details: in vivo
[4] = AUC (0 to t) in male Sprague-Dawley rat at 1 mg/kg, iv measured up to 24 hrs by LC-MS/MS analysis; type: ADME, organism-based; details: in vivo
[5] = system: MV4-11; test: Upregulation of CD86 expression in human MV4-11 cells incubated for 48 hrs by flow cytometry analysis; type: functional, cell-based; details: dose 2-4 µmol/L
[6] = system: MV4-11; test: Induction of apoptosis in human MV4-11 cells assessed as early apoptotic cells at 3 micromol/L measured after 48 hrs by Annexin V-FITC/PI double staining based flow cytometry analysis (reference value: 2.01 %); type: functional; details: dose 3 µmol/L, at 3 µM
[7] = Cmax in male Sprague-Dawley rat at 10 mg/kg, po measured up to 24 hrs by LC-MS/MS analysis; type: ADME, organism-based; details: in vivo
[8] = system: MV4-11; test: Induction of apoptosis in human MV4-11 cells assessed as viable cells at 2 micromol/L measured after 48 hrs by Annexin V-FITC/PI double staining based flow cytometry analysis (reference value: 89.13%); type: functional; details: MV4-11, 48 h, dose 2 µmol/L, read-out: Activity
[9] = Metabolic stability in rat liver microsomes assessed as half life measured up to 60 mins in presence of NADPH by LC-MS/MS analysis; type: ADME, Microsome
[10] = system: MV4-11; test: Induction of apoptosis in human MV4-11 cells assessed as viable cells at 3 micromol/L measured after 48 hrs by Annexin V-FITC/PI double staining based flow cytometry analysis (reference value: 89.13%); type: functional; details: MV4-11, 48 h, dose 3 µmol/L, read-out: Activity
[11] = system: HL-60; test: Antiproliferative activity against human HL-60 cells assessed as inhibition of cell growth measured after 7 days by cell-titer glo assay; type: functional, cell-based; details: HL-60, 168 h
[12] = Solubility in PBS buffer at pH 7.4 measured after 2 hrs by LC-MS/MS analysis; type: physicochemical
[13] = Metabolic stability in rat liver microsomes assessed as intrinsic clearance measured up to 60 mins in presence of NADPH by LC-MS/MS analysis; type: ADME, Microsome; details: read-out: CLH
[14] = target: T2, Lysine-specific histone demethylase 1A (Homo sapiens, UniProt O60341); test: Inhibition of LSD1 in human MV4-11 cells assessed as increase in H3K4me1 expression level at 2 to 4 micromol/L measured after 48 hrs by Western blot analysis; type: cell-based; details: dose 2-4 µmol/L
[15] = system: MV4-11; test: Induction of apoptosis in human MV4-11 cells measured after 48 hrs by Annexin V-FITC/PI double staining based flow cytometry analysis; type: functional, cell-based; details: dose 2-4 µmol/L
[16] = system: MV4-11; test: Induction of apoptosis in human MV4-11 cells assessed as late apoptotic cells at 4 micromol/L measured after 48 hrs by Annexin V-FITC/PI double staining based flow cytometry analysis (reference value: 7.70 %); type: functional; details: dose 4 µmol/L, at 4 µM
[17] = system: MV4-11; test: Induction of apoptosis in human MV4-11 cells assessed as necrotic cells at 2 micromol/L measured after 48 hrs by Annexin V-FITC/PI double staining based flow cytometry analysis (reference value: 1.16 %); type: functional; details: dose 2 µmol/L, at 2 µM
[18] = target: T2, Lysine-specific histone demethylase 1A; test: Inhibition of LSD1 in human MV4-11 cells assessed as increase in H3K4me2 expression level at 2 to 4 micromol/L measured after 48 hrs by Western blot analysis; type: cell-based; details: dose 2-4 µmol/L

Cmax [1]: 869 ng/mL
pIC50 [2]: 6.08
half-life [3]: 86.4 min
AUC(0-t) at 24 h [4]: 481 ng·h/mL
Cmax [7]: 89.8 ng/mL
half-life [9]: 3.94 min
pIC50 [11]: 5.85
solubility at 2 h [12]: 1.43 µM
CLint scaled [13]: 352 mL/min/kg
inhibition [14]: Active
inhibition [18]: Active
SMILES: Cl.O=S(=O)(c1ccccc1)n1ncc2cc(-n3cc(CN[C@@H]4C[C@H]4c4ccc(F)c(F)c4)nn3)ccc21
Activity [5]: Dose-dependent-effect
Activity [6]: 3.18%
viability at 2 µM [8]: 80.4%
viability at 3 µM [10]: 80.8%
Activity [15]: Dose-dependent-effect
Activity [16]: 15.39%
Activity [17]: 3.32%
